Assay results taken from PubChem BioAssay (NCI).
Values joined by “and” are separate entries in the source; they are usually repeats but may differ in a detail not shown here. Equal entries are not always repeated.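 A five-concentration, 48-hour dose response in 96-well plates underlies each endpoint, interpolated linearly between surrounding concentrations. At the GI50, growth is halved. TGI marks complete inhibition of growth.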

Columns and labels:
Experiment in all cases: inhibition of tumour cell growth, NCI panel, 48 h
SK-OV-3 ovarian = tested on: SK-OV-3 ovarian
MOLT-4 leukemia = tested on: MOLT-4 leukemia
MALME-3M melanoma = tested on: MALME-3M melanoma
UACC-257 melanoma = tested on: UACC-257 melanoma
A549 NSCLC = tested on: A549 NSCLC
SF-268 CNS = tested on: SF-268 CNS
ACHN renal = tested on: ACHN renal
BT-549 breast = tested on: BT-549 breast
NCI-H226 lung = tested on: NCI-H226 lung
T-47D breast = tested on: T-47D breast

SMILES | GI50 (SK-OV-3 ovarian) [µM] | TGI (SK-OV-3 ovarian) [µM] | GI50 (MOLT-4 leukemia) [µM] | TGI (MOLT-4 leukemia) [µM] | GI50 (MALME-3M melanoma) [µM] | TGI (MALME-3M melanoma) [µM] | GI50 (UACC-257 melanoma) | TGI (UACC-257 melanoma) [µM] | GI50 (A549 NSCLC) [µM] | TGI (A549 NSCLC) [µM] | GI50 (SF-268 CNS) [µM] | TGI (SF-268 CNS) [µM] | GI50 (ACHN renal) [µM] | TGI (ACHN renal) [µM] | GI50 (BT-549 breast) [µM] | TGI (BT-549 breast) | GI50 (NCI-H226 lung) [µM] | TGI (NCI-H226 lung) [µM] | GI50 (T-47D breast) | TGI (T-47D breast) [µM]
CCOC(=O)C1=C(c2ccccc2)N(c2ccc(OC)cc2)[C@]2(C#N)C(O)=C(Cl)C(Cl)=C(O)[C@]12C#N | 23.4 | 62.7 | 21.9 | 56.9 | 18.7 | 42.6 | 22.2 µM | 52.2 | 69.1 | > 100 | 24 | 52.2 | 19.7 | 42.1 | 24.2 | 56.4 µM | 20.2 | 42.5 | 21.2 µM | 44.9
Oc1cc(Cl)ccc1Cc1ccc(Cl)cc1O | 20.6 | 43.3 | 9.24 | > 100 | 4.32 | 19.2 | 14.7 µM | 36.9 | 14.7 | 41.1 | 9.44 | 27.7 | 10 | 31.2 | 4.22 | 19.1 µM | 24.7 | 57.8 | 4.91 µM | 29.3
COc1cc(-c2n/c(=C\c3c(O)[nH]c4ccccc34)cc3c2=Nc2ccccc2-3)cc(OC)c1OC | 4.58 | > 100 | 0.528 | 7.34 | 0.448 | > 100 | 1.73 µM | > 100 | 0.675 | > 100 | 1.39 | > 100 | 1.11 | > 100 | 0.486 | 2.47 µM | 4.23 | > 100 | 1.14 µM | > 22.5
C=C(C)[C@@H]1CC[C@]2(C(=O)NCCNCCNCCN)CC[C@]3(C)[C@H](CC[C@@H]4[C@@]5(C)CCC(=O)C(C)(C)[C@@H]5CC[C@]43C)[C@@H]12 | 10.6 | 25.9 | 6.96 | 31.1 | 7.4 | 16.5 | 7.91 µM | 18.3 | 7.69 | 15.9 | 7.53 | 15.9 | 13.8 | > 50 | 8.91 | 22.2 µM | 7.74 | 17.1 | 7.52 µM | 18.7
CN1CCC(n2[nH]c(-c3ccccc3)c(Cc3ccccc3)c2=O)CC1 |  | > 100 |  | 89.7 |  | > 100 |  | > 100 |  | > 100 |  | > 100 |  | > 100 |  | > 100 µM |  | > 100 |  | > 100
COC(=O)[C@@H]1CCCN1C(=O)[C@H]1CCCN1C(=O)[C@@H](Cc1c[nH]c2ccccc12)NC(=S)Nc1cc(C(F)(F)F)cc(C(F)(F)F)c1 | 6.56 | 18.9 | 2.88 | 7.98 | 2.65 | 7.24 | 2.5 µM | 6.99 | 2.19 | 5.54 | 3.51 | 12.1 | 2.97 | 11 | 3.52 | 11.3 µM | 2.86 | 11.7 | 2.44 µM | 7.53
O=C1CC/C(=C\COc2ccc3ccc(=O)oc3c2)O1 | 27.8 | > 100 | 6.41 | > 100 | 3.47 | 24.4 | 13.6 µM | 30 | 24.1 | > 100 | 11.9 | 63 | 0.386 | 2.02 | 10.2 | 26.4 µM | 22.4 | 83.1 | 4.83 µM | 27.1
COc1ccc(-c2nc3sc4c(c3c(=O)[nH]2)CCCC4)c2ccccc12 |  | 3.74 |  | > 100 | 0.749 | 9.03 | 1.56 µM and 4.95 µM | > 100 | 0.42 |  |  | > 100 | 0.755 |  |  | 6.08 µM and 3.47 µM | 1.41 |  | 4.82 µM and 2.85 µM | > 100
O=[N+]([O-])c1cccc(-c2cc(-c3cc(Br)ccc3O)[nH]n2)c1 | 2.37 | 7.15 | 1.72 | 4.68 | 2.21 | 5.52 | 2.5 µM | 6.49 | 2.42 | 6.68 | 2.86 | 12.7 | 3.23 |  | 1.26 | 4.61 µM | 3.66 | 27.2 | 2.64 µM | 8.84
O=[N+]([O-])c1ccc(N=Nc2c(O)[nH]c3ccccc23)cc1 |  | 65.3 |  | > 100 |  | 45.2 |  | > 60.1 |  | > 100 |  | 58.7 |  | 26.3 |  | 71.3 µM |  | 51.5 |  | 35.8
COc1ccc(-c2csc3c2-n2cccc2C3=O)cc1O | 0.0452 | 18.1 | 0.132 | 6.1 | 35.3 | > 100 | 1.36 µM | > 100 | 0.112 | > 91.5 | < 0.0284 | > 82.2 | < 0.0489 | > 100 | 0.0197 | > 100 µM | 12.1 | > 46.6 | 39.4 µM | > 100
COc1ccc2c(c1)C(=O)c1c-2n(CCCN2CCOCC2)c(=O)c2cc([N+](=O)[O-])ccc12 | < 0.01 | 14.5 | < 0.01 |  | < 0.0117 | 0.779 | 0.0504 µM | 3.08 | < 0.01 | 3.01 | < 0.01 | > 100 | < 0.01 | < 0.0108 | < 0.01 | 0.448 µM | < 0.01 | 0.405 | < 0.01 µM | > 100
COc1ccc(-n2c(C)nc3c(c(C)nn3-c3ccccc3)c2=O)cc1 | 1.08 | > 100 | 0.196 | > 40.4 | 15.9 | > 100 | 5.82 µM | 75.1 | 0.107 | > 100 | 1.76 | > 100 | 0.0645 | > 100 | 0.123 | 33.8 µM | 0.207 | > 100 | 0.0403 µM | 72.5
CC1(C)Cc2c(Br)c(Br)c(Br)c(OCC(O)CN3CCOCC3)c2O1 (stereo unspecified) | 15.9 | 29.6 | 3.15 | 14.1 | 15 | 32.7 | 19.1 µM | 37.8 | 12.9 | 28.4 | 12.1 | 27.8 | 15.1 | 28.7 | 10.5 | 22.3 µM | 15.2 | 34.9 | 13.1 µM | 27.3
Cc1ccc2[nH]c(C(=O)NN3C(=O)C(C)SC34CCCCC4C)c(-c3ccccc3)c2c1 (stereo unspecified) | 37.9 | > 100 | 12.2 | 41 | 20.4 | 38.1 | 20.4 µM | 37.6 | 15.9 | 32.9 | 18.8 | 43.6 | 17.3 | 36.6 | 18.8 | 34.5 µM | 17.4 | 34.2 | 24.6 µM | 78.9
COc1ccc(-c2cc(-c3nnc(SCC(=O)Nc4ccc(C(C)=O)cc4)o3)c3ccccc3n2)cc1 | 27 | 91.6 | > 100 | > 100 | 10.6 | 91.8 | > 100 µM | > 100 | > 100 | > 100 | 29.1 | > 100 | 5.64 | 31.7 | 8.77 | > 100 µM | 43.6 | > 100 | > 100 µM | > 100
NC(=O)NCCSC1CCCCC1O (stereo unspecified) |  | > 100 |  | 78 |  | > 100 |  | > 100 |  | > 100 |  | > 100 |  | > 100 |  | > 100 µM |  | > 100 |  | > 100
COc1ccc(-c2ccccc2)cc1-c1c(Nc2cc(Cl)cc(Cl)c2O)c(=O)c1=O | 1.28 | 4.25 | 1.78 | > 50 | 1.19 | 3.5 | 1.44 µM | 4.77 | 1.65 | > 50 | 1.31 | > 50 | 1.5 | > 50 | 1.41 | 4.59 µM | 1.57 | > 50 | 1.7 µM | > 50
CCN1CCC(CC(=O)Nc2n[nH]c3nc(-c4cccs4)c(Br)cc23)CC1 | 9.24 | > 25 | 9.07 | 24.5 | 6.42 | 13.4 | 5.58 µM | 10.8 | 8.82 | > 25 | 11.5 | > 25 | 7.96 | > 25 | > 23 | > 25 µM | 12.1 | > 25 | 12.4 µM | > 25
c1cncc(CNc2ncn[nH]2)c1 |  | > 100 |  | > 100 |  | > 100 |  | > 100 |  | > 100 |  | > 100 |  | > 100 |  | > 100 µM |  | > 100 |  | > 100
CC1(C)N[P+]2(Nc3ccccc3O2)OC1=O (stereo unspecified) |  | > 100 |  | > 100 |  | > 100 |  | > 100 |  | > 100 |  | > 100 |  | > 100 |  | > 100 µM |  | > 100 |  | > 100
